Reference: patent US11725000B2, “Apoptosis inhibitors” (National Institute of Biological Sciences, Beijing, priority 2017, dated 2023)

System: U2OS_Bim cells
Test: Apoptosis inhibition assay (Bim-induced apoptosis, cell viability by ATP level)
Assay type: cell-based
Settings: U2OS_Bim cells; estimated (*Est.) / preliminary results; numbering of Tables 4a/4b; read-out: EC50
Description: A chemical library containing 200000 compounds was screened according to the following procedure: U2OS_Bim cells (a cell line in which the BH3-only protein Bim can be inducibly expressed by the addition of Doxycycline to the growth medium)^[2] were plated in 384-well plates with 30 μl medium at a density of 500 cells per well. 16 hrs after plating, test compounds were transferred from stock plates to the assay plates with the cultured cells. Positive control (20 μM zVAD) and negative control (DMSO) were added to every plate. 1 hr after compound treatment, 0.1 ug/mL Doxycyclin (DOX) was added to induce the expression of the Bim protein. After 24 hrs, cell viability was determined by measuring the ATP levels using a Cell Titer-Glo kit (Promega, G7570) according to the manufacturer's instructions. Luminescence was recorded with a PerkinElmer EnSpire Multimode Plate Reader. Compounds that could rescue cell viability to a level above 50% were selected; these compounds were then screened a second time for assurance.
U2OS_Bim or U2OS_tBid cells were plated at a density of 3000 cells per well in 96-well plates. 24 hrs later, cells were treated with experimental compounds, zVAD (positive control) and DMSO (Negative control) for one hour. The cells were then treated with 0.1 μg/mL DOX to trigger apoptosis. 24 hours after the addition of DOX, cell viability was determined by measuring the ATP levels using a Cell Titer-Glo kit. Cell survival rate was calculated.
U2OS_Bim cells (a U2OS stable cell line transfected with a Bim transgene) were cultured in DMEM culture medium (Gibico). On day one, U2OS_Bim cells were plated in 96-well plates at a density of 3000 cells per well. On day two, cells were pretreated with compounds for one hour. Then cells were treated with 0.1 μg/mL doxycycline (DOX) to trigger apoptosis. 24 hours after DOX treatment, cell viability was determined by measuring the ATP levels using the Cell Titer-Glo kit (G7570, Promega), according to the manufacturer's instructions. Luminescence was recorded with a PerkinElmer EnSpire Multimode Plate Reader. Survived cells were normalized to those cells treated with DMSO. zVAD (20 μM) was used as a positive control. Activity data for compounds […] are represented as means f standard deviation of duplicates; activity data for compounds 187-274 are estimated based on preliminary results.

**Q.** How did the EC50 turn out when `Cc1cc(-c2cc(F)c(=O)n(Cc3ccc4nnn(C)c4c3)c2)nc(S(=O)(=O)CCCC(=O)N(c2ccccc2)C(C)(C)C)n1` [Compound 374] was run?
**A.** 0.001 to 1 µM

**Q.** For `Cc1cc(-c2cc(F)c(=O)n(Cc3ccc4c(c3)OCO4)c2)nc(S(=O)(=O)CCC(OCC2CO2)c2ccccc2)n1` (centres unmarked) [Compound 419], which EC50 is on record?
**A.** 0.001 to 1 µM

**Q.** How did the EC50 turn out when `Cc1cc(-c2cc(F)c(=O)n(Cc3ccc4c(c3)OCO4)c2)nc(S(=O)(=O)CCC(OCc2ccccc2F)c2ccc3ccn(C)c3c2)n1` (centres unmarked) [Compound 392] was run?
**A.** 0.001 to 1 µM

**Q.** `Cc1cc(-c2cc(F)c(=O)n(Cc3ccc4c(c3)OCO4)c2)nc(S(=O)(=O)CCC(OCC2CCOCC2)c2ccccc2)n1` (centres unmarked) [Compound 410] was tested. Which EC50 did it give?
**A.** 0.001 to 1 µM

**Q.** With `Cc1cc(-c2cc(F)c(=O)n(Cc3ccc4nnn(C)c4c3)c2)nc(S(=O)(=O)CCCN(c2ccccc2)C2CCC2)n1` [Compound 379] as the molecule, how does the EC50 read?
**A.** 0.001 to 1 µM

**Q.** Which EC50 does the source give for `Cc1cc(-c2cc(F)c(=O)n(Cc3ccc4c(c3)N(C)CCO4)c2)nc(S(=O)(=O)CCC(OCc2ccccc2F)c2ccccc2)n1` (centres unmarked) [Compound 356] here?
**A.** 0.001 to 1 µM

**Q.** How did the EC50 turn out when `Cc1cc(-c2cc(F)c(=O)n(Cc3ccc4c(c3)OCO4)c2)nc(S(=O)(=O)CCCN2C(=O)Cc3ccccc32)n1` [Compound 362] was run?
**A.** 0.001 to 1 µM

**Q.** With `Cc1cc(-c2cc(F)c(=O)n(Cc3ccc4c(c3)OCO4)c2)nc(S(=O)(=O)CCC(OCc2ccccc2F)c2ccc3ncccc3c2)n1` (centres unmarked) [Compound 391] as the molecule, how does the EC50 read?
**A.** 0.001 to 1 µM

**Q.** Which EC50 does the source give for `Cc1cc(-c2cc(F)c(=O)n(Cc3ccc4c(c3)OCO4)c2)nc(S(=O)(=O)CCCC(=O)N(c2ccccc2)C2CC2)n1` [Compound 372] here?
**A.** 0.001 to 1 µM

Same assay, conditions: U2OS_Bim cells; estimated based on preliminary results; numbering of Tables 4a/4b; read-out: EC50

**Q.** With `COc1ccn(Cn2cc(-c3cc(C(F)(F)F)nc(S(C)(=O)=O)n3)ccc2=O)c1` [Compound 260] as the molecule, how does the EC50 read?
**A.** < 10 µM

**Q.** How did the EC50 turn out when `COc1ccc(Cn2cc(-c3cc(C(F)(F)F)nc([S+]([O-])CN(C)C)n3)ccc2=O)cc1OC` (centres unmarked) [Compound 200] was run?
**A.** < 10 µM

**Q.** With `CS(=O)(=O)c1nc(-c2ccc(=O)n(Cc3ccc4nccnc4c3)c2)cc(C(F)(F)F)n1` [Compound 244] as the molecule, how does the EC50 read?
**A.** < 10 µM

**Q.** `COc1ccc(Cn2cc(-c3cc(C4=CCC=C4)nc([S+](C)[O-])n3)ccc2=O)cc1OC` (centres unmarked) [Compound 209] was tested. Which EC50 did it give?
**A.** < 10 µM

Same assay, conditions: U2OS_Bim cells; means of duplicates; numbering of Tables 4a/4b; read-out: EC50

**Q.** `Cc1ccccc1-c1cc(C(F)(F)F)nc(S(C)(=O)=O)n1` [Compound 46, 2-(methylsulfonyl)-4-(o-tolyl)-6-(trifluoromethyl)pyrimidine] was tested. Which EC50 did it give?
**A.** 1 to 20 µM

**Q.** `COc1cccc(C[S+]([O-])c2nc(-c3ccc(=O)n(Cc4ccc(OC)c(OC)c4)c3)cc(C(F)F)n2)c1` (centres unmarked) [Compound 173, 5-(6-(difluoromethyl)-2-((3-methoxybenzyl)sulfinyl)pyrimidin-4-yl)-1-(3,4-dimethoxybenzyl)pyridin-2 (1H)-one] was tested. Which EC50 did it give?
**A.** 1 to 10 µM

**Q.** `C[S+]([O-])c1nc(-c2ccc(=O)n(Cc3ccc4c(c3Br)OCO4)c2)cc(C(F)(F)F)n1` (centres unmarked) [Compound 138, 1-((4-bromobenzo[d][1,3]dioxol-5-yl)methyl)-5-(2-(methylsulfinyl)-6-(trifluoromethyl)pyrimidin-4-yl)pyridin-2 (1H)-one] was tested. Which EC50 did it give?
**A.** 0.001 to 1 µM

**Q.** With `COc1ccc(Cn2cc(-c3cc(C(F)(F)F)nc(S(=O)(=O)Cc4ccc(-c5ccccc5)cc4)n3)ccc2=O)cc1OC` [Compound 140, 5-(2-(([1,1′-biphenyl]-4-ylmethyl)sulfonyl)-6-(trifluoromethyl)pyrimidin-4-yl)-1-(3,4-dimethoxybenzyl)pyridin-2 (1H)-one] as the molecule, how does the EC50 read?
**A.** 0.001 to 1 µM

**Q.** For `C#CCCS(=O)(=O)c1nc(-c2ccc(=O)n(Cc3ccc(OC)c(OC)c3)c2)cc(C(F)(F)F)n1` [Compound 141, 5-(2-(but-3-yn-1-ylsulfonyl)-6-(trifluoromethyl)pyrimidin-4-yl)-1-(3,4-dimethoxybenzyl)pyridin-2 (1H)-one], which EC50 is on record?
**A.** 0.001 to 1 µM

**Q.** `Cc1cc(-c2cc(F)c(=O)n(Cc3ccc4c(c3)OCO4)c2)nc(S(=O)(=O)CCC(OCc2ccccc2F)c2ccccc2)n1` (centres unmarked) [Compound 318, 1-(benzo[d][1,3]dioxol-5-ylmethyl)-3-fluoro-5-(2-(3-(2-fluorobenzyloxy)-3-phenylpropylsulfonyl)-6-methylpyrimidin-4-yl)pyridin-2 (1H)-one] was tested. Which EC50 did it give?
**A.** 0.001 to 1 µM

**Q.** With `C[S+]([O-])c1nc(-c2cc[nH]c2)cc(C(F)(F)F)n1` (centres unmarked) [Compound 88, 2-(methylsulfinyl)-4-(1H-pyrrol-3-yl)-6-(trifluoromethyl)pyrimidine] as the molecule, how does the EC50 read?
**A.** < 100 µM

**Q.** How did the EC50 turn out when `COc1ccc(Cn2cc(-c3cc(C(F)(F)F)nc(S(=O)(=O)CCC(=O)N(C)C)n3)ccc2=O)cc1OC` [Compound 149, 3-((4-(1-(3,4-dimethoxybenzyl)-6-oxo-1,6-dihydropyridin-3-yl)-6-(trifluoromethyl)pyrimidin-2-yl)sulfonyl)-N,N-dimethylpropanamide] was run?
**A.** 0.001 to 1 µM

**Q.** `COc1ccc(Cn2cc(-c3cc(CF)nc(S(C)(=O)=O)n3)ccc2=O)cc1OC` [Compound 161, 5-(6-(fluoromethyl)-2-(methylsulfonyl)pyrimidin-4-yl)-1-(3,4-dimethoxybenzyl)pyridin-2 (1H)-one] was tested. Which EC50 did it give?
**A.** 0.001 to 1 µM

**Q.** How did the EC50 turn out when `CS(=O)(=O)c1nc(-c2ccc(=O)n(Cc3cccc(Cl)c3)c2)cc(C(F)(F)F)n1` [Compound 105, 1-(3-chlorobenzyl)-5-(2-(methylsulfonyl)-6-(trifluoromethyl)pyrimidin-4-yl)pyridin-2 (1H)-one] was run?
**A.** 0.001 to 1 µM

**Q.** How did the EC50 turn out when `COc1ccc(Cn2cc(-c3cc(C(F)(F)F)nc(S(=O)(=O)CCCCO)n3)ccc2=O)cc1OC` [Compound 276, 1-(3,4-dimethoxybenzyl)-5-(2-((4-hydroxybutyl)sulfonyl)-6-(trifluoromethyl)pyrimidin-4-yl)pyridin-2 (1H)-one] was run?
**A.** 0.001 to 1 µM

**Q.** With `COc1cccc(-c2cc(C(F)(F)F)nc(S(C)(=O)=O)n2)c1` [Compound 52] as the molecule, how does the EC50 read?
**A.** < 100 µM

**Q.** `CS(=O)(=O)c1nc(-c2ccc(=O)n(Cc3ccc(-n4cccn4)cc3)c2)cc(C(F)(F)F)n1` [Compound 132, 1-(4-(1H-pyrazol-1-yl)benzyl)-5-(2-(methylsulfonyl)-6-(trifluoromethyl)pyrimidin-4-yl)pyridin-2 (1H)-one] was tested. Which EC50 did it give?
**A.** 0.001 to 1 µM

**Q.** How did the EC50 turn out when `CS(=O)(=O)c1nc(-c2ccn(Cc3ccc(Cl)cc3)c2)cc(C(F)(F)F)n1` [Compound 95, 4-(1-(4-chlorobenzyl)-1H-pyrrol-3-yl)-2-(methylsulfonyl)-6-(trifluoromethyl)pyrimidine] was run?
**A.** < 100 µM

**Q.** Which EC50 does the source give for `COc1ccc(Cn2cc(-c3cc(C(F)(F)F)nc(S(=O)(=O)CCCC(=O)N4CCCCC4)n3)ccc2=O)cc1OC` [Compound 155, 1-(3,4-dimethoxybenzyl)-5-(2-((4-oxo-4-(piperidin-1-yl)butyl)sulfonyl)-6-(trifluoromethyl)pyrimidin-4-yl)pyridin-2 (1H)-one] here?
**A.** 0.001 to 1 µM

**Q.** With `CS(=O)(=O)c1nc(-c2cccs2)cc(-n2ccccc2=O)n1` [Compound 39, 1-(2-(methylsulfonyl)-6-(thiophen-2-yl)pyrimidin-4-yl)pyridine-2 (1H)-one] as the molecule, how does the EC50 read?
**A.** < 100 µM

**Q.** For `CS(=O)(=O)c1nc(-c2ccc(C(=O)O)cc2)cc(C(F)(F)F)n1` [Compound 64, 4-(2-(methylsulfonyl)-6-(trifluoromethyl)pyrimidin-4-yl)benzoic acid], which EC50 is on record?
**A.** < 100 µM

**Q.** With `CS(=O)(=O)c1nc(-c2ccc(=O)n(Cc3cccc(C#N)c3)c2)cc(C(F)(F)F)n1` [Compound 118, 3-((5-(2-(methylsulfonyl)-6-(trifluoromethyl)pyrimidin-4-yl)-2-oxopyridin-1 (2H)-yl)methyl)benzonitrile] as the molecule, how does the EC50 read?
**A.** 1 to 20 µM

**Q.** `COc1cc(Cn2cc(-c3cc(C(F)(F)F)nc(S(C)(=O)=O)n3)ccc2=O)ccn1` [Compound 135, 1-((2-methoxypyridin-4-yl)methyl)-5-(2-(methylsulfonyl)-6-(trifluoromethyl)pyrimidin-4-yl)pyridin-2 (1H)-one] was tested. Which EC50 did it give?
**A.** 0.001 to 1 µM

**Q.** With `O=S(=O)(CCC(OCc1ccccc1)c1ccccc1)c1nc(-c2cccs2)cc(C(F)(F)F)n1` (centres unmarked) [Compound 291, 2-(3-(benzyloxy)-3-phenylpropylsulfonyl)-4-(thiophen-2-yl)-6-(trifluoromethyl)pyrimidine] as the molecule, how does the EC50 read?
**A.** 1 to 10 µM

**Q.** Which EC50 does the source give for `COc1ccc(Cn2cc(-c3cc(C(C)(F)F)nc(S(C)(=O)=O)n3)ccc2=O)cc1OC` [Compound 164, 5-(6-(1,1-difluoroethyl)-2-(methylsulfonyl)pyrimidin-4-yl)-1-(3,4-dimethoxybenzyl)pyridin-2 (1H)-one] here?
**A.** 0.001 to 1 µM

**Q.** For `Cc1cc(-c2cc(F)c(=O)n(Cc3cccc4c3OCO4)c2)nc(S(=O)(=O)CCC(OCc2ccccc2F)c2ccccc2)n1` (centres unmarked) [Compound 320, 1-(benzo[d][1,3]dioxol-4-ylmethyl)-3-fluoro-5-(2-(3-(2-fluorobenzyloxy)-3-phenylpropylsulfonyl)-6-methylpyrimidin-4-yl)pyridin-2 (1H)-one], which EC50 is on record?
**A.** 0.001 to 1 µM
